The test system of data set [1] is Female Kunming mice. The data set is described as follows: Hot plate analgesia test in mice. The class given is in vivo. The settings on record: intraperitoneal, 55° C. hot plate; for ED50: Mus musculus, ip; for Maximum analgesic effective percentage (% MPE), hot plate: 10 mg/kg. On the procedure: Female Kunming mice weighing about 20 g are placed on a hot plate instrument preheated to 55° C., and the latency of licking hind feet or lifting hind feet is used as the pain threshold index. Animals are screened before the experiment, and animals with latency less than 5 s or more than 30 s are excluded. To prevent foot burns, the longest observation time is set to 60s. The basic pain threshold is the average of two measurements, and the interval between the two measurements is 5 minutes. The pain threshold of mice in each group is determined at 15 minutes, 30 minutes, 60 minutes and 120 minutes after intraperitoneal administration. The effective percentage of analgesia (% MPE) is calculated according to the following formula
[formula] According to the effective percentage of analgesia, the ED50 value is calculated by graphpad prism 5.0 software.

Data set [2] addresses hERG potassium channel (Homo sapiens, UniProt Q12809). The data set is described as follows: hERG potassium channel whole-cell patch clamp (HEK293). The class given is cell-based. Also noted: expressed in transfected cells; host or cells: HEK293 cell line. The conditions noted are these: for pIC50: HEK293 cells stably expressing hERG, whole-cell patch clamp, room temperature, read-out: Half-inhibition concentration of compounds to be tested on hERG (IC50). From the text:
The rapidly activated potassium channel encoded by human ether-a-go-go-related gene (hERG) is an important ion channel involved in the formation of phase 3 repolarization of myocardial action potential. […] Drug-induced delayed ventricular repolarization may cause fatal arrhythmia-torsade de pointes in some cases. According to statistics, about 25-40% of the lead compounds show different degrees of hERG-related toxicity, and many drugs are withdrawn from the market because they may lead to the risk of QT interval extension. At present, National Medical Products Administration also requires hERG/IKr safety evaluation data before clinical trial application (IND) of new drugs under study. • 1. Whole-cell patch clamp technique is used to study the inhibitory effect of compounds on hERG potassium channels: • 1) the compound to be tested is stored with physiological saline prepared into 10 mM liquid. The test stock solution is diluted with physiological saline into 3 mM, 1 mM and 0.3 mM diluents in turn. […] The old culture medium removed and is washed once with PBS, then added with 1 mL TrypLE™ Express solution and incubated at 37° C. for about 0.5 minutes. When the cells are detached from the bottom of the dish, about 5 ml complete medium preheated is added at 37° C. The cell suspension is gently blown with a straw to separate the aggregated cells. The cell suspension is transferred to a sterile centrifuge tube and centrifuged at 1000 rpm for 5 minutes to collect cells. […] The clamping voltage is depolarized from −80 mV to −50 mV for 0.5 seconds (as leakage current detection), then stepped to 30 mV for 2.5 seconds, and then quickly recovered to −50 mV for 4 seconds, which can excite the tail current of hERG channel. Data are collected repeatedly every 10s to observe the effect of drugs on hERG tail current. 0.5 seconds-50 mV stimulation is used as leakage current detection. The test data are collected by IPA amplifier (Sutter Instrument) and stored in SutterPatch software.
Capillary glass tube is drawn into recording electrode by microelectrode drawing instrument. Under the inverted microscope, the microelectrode manipulator is operated to contact the recording electrode with the cell, and negative pressure suction is given to form a GΩ seal. After the GΩ seal is formed, rapid capacitance compensation is carried out, and then negative pressure is continuously applied to break the cell membrane, forming a whole cell recording mode. Then the slow capacitance is compensated and the film capacitance and series resistance are recorded. No leakage compensation is given.
When the hERG current recorded in the whole cell is stable, the drug is administered, and the next concentration is detected after each drug concentration acts for 5 minutes (or the current is stable), and multiple concentrations are detected for each test compound. The cover glass covered with cells is placed in the recording bath in an inverted microscope, and the test compound and the external liquid containing no compound flowed through the recording bath from low concentration to high concentration by gravity perfusion method, so as to act on the cells, and liquid exchange is carried out by using a vacuum pump during recording. The current detected by each cell in the external fluid without compounds is used as its own control group.
At least two cells are used to detect each concentration independently and repeatedly twice. All electrophysiological tests are conducted at room temperature.
Firstly, the current after each drug concentration and the blank control current are standardized
[formula] followed by the calculation of the inhibition rate
[formula] corresponding to each drug concentration, the average and standard deviation for each concentration, and the semi-inhibition concentration of each compound with the following equation: […]
The dose-dependent effect is nonlinear fitted by the above equation, and IC50 is semi-inhibitory concentration.
(In general: hERG is a cardiac potassium channel; its block is linked to QT prolongation.)

Data set [3] concerns the target T1, δOR (Homo sapiens, UniProt P41143).
T1 construct: expressed in transfected cells; host or cells: CHO cells
Put plainly: Opioid receptor competitive binding test, δOR. The conditions noted are these: compound at 10 μM; [3H]-labeled ligand; CHO cell membranes; ± SD of three measurements. On the procedure:
(§1) CHO cells expressing p opioid receptor, δ opioid receptor and K opioid receptor are cultured in a 10 cm^2 Petri dish (F-12 medium+10% newborn bovine serum) for several days, and the culture solution is sucked after the cells grew to the bottom of the dish. 3 ml PBS/EDTA solution (0.1M NaCl, 0.01M NaH2PO4, 0.04% EDTA) is added for digestion for 3-5 minutes. The cells are blown with a straw to get fall off completely, collected in a 40 ml centrifuge tube, centrifuged at 5000 rpm for 5 minutes, and removed with the supernatant. The centrifuge tube is added with ice-cold homogenate (50 mM HEPES PH 7.4, 3 mM MgCl2, 1 mM EGTA). The solution and precipitate are transferred to homogenizer for homogenization; Then the homogenate is transferred into a centrifuge tube, centrifuged at 18000 rpm for 15 minutes, and centrifuged twice; the obtained precipitate is added with an appropriate amount of buffer solution of 50 mM Tris-HCl and pH 7.4, homogenized and sub-packaged in centrifuge tubes. The product is stored in a refrigerator at −70° C. for later use.
(§2) 20-30 μg expressed membrane receptor protein and [3H]-labeled ligand (1-2 nM) are added to the total binding tube, added with 1 μM of corresponding ligand to the corresponding nonspecific binding tube. Various screened opioid ligand drugs (see the drug compounds in Table 1 below) are added to the sample tube with 100 μL final volume. The sample is incubated at 30° C. for 30 minutes, and the reaction is terminated in ice water. The glass fiber filter paper gF/C (whatman) is used for negative pressure filtration on Millipore sample collector. The sample is eluted with 4 ml 50 mm tris-HCl (pH 7.4) for three times, dried with the filter paper, put in 0.5 ml Eppendorf tube and added with 0.5 ml lipophilic scintillation liquid. The radioactive intensity is measured with PERKIN ELMER PRI-CARB 2910 liquid scintillation counter with calculation of the inhibition rate. The experiment is repeated for more than three times, with three compound tubes in each group. Inhibition rate(or binding rate)=(total binding rate dpm−sample tube dpm)/(total binding tube dpm-nonspecific binding tube dpm)×100%
(§3) IC50 is calculated with Prism 5.0 software. The Ki value is calculated according to the following formula: Ki=IC50/(1^+[L]/Kd), wherein [L] is the concentration of the added labeled ligand, and Kd is the equilibrium dissociation parameter of the labeled ligand.

Data set [4] has as its target T2, μOR (Homo sapiens, UniProt P35372).
T2 construct: expressed in transfected cells; host or cells: CHO cells
The data set is described as follows: Opioid receptor competitive binding test, μOR. The conditions noted are these: compound at 10 μM; [3H]-labeled ligand; CHO cell membranes; ± SD of three measurements. How it is done:
as §1, §2, §3

For data set [5], the target named is T3, κOR (Homo sapiens, UniProt P41145).
T3 construct: expressed in transfected cells; host or cells: CHO cells
Put plainly: Opioid receptor competitive binding test, κOR. The settings on record: compound at 10 μM; [3H]-labeled ligand; CHO cell membranes; ± SD of three measurements. How it is done:
as §1, §2, §3

Data set [6] concerns the target T4, CYP 1A2 (Homo sapiens, UniProt P05177).
T4 sequence (P05177 1-516): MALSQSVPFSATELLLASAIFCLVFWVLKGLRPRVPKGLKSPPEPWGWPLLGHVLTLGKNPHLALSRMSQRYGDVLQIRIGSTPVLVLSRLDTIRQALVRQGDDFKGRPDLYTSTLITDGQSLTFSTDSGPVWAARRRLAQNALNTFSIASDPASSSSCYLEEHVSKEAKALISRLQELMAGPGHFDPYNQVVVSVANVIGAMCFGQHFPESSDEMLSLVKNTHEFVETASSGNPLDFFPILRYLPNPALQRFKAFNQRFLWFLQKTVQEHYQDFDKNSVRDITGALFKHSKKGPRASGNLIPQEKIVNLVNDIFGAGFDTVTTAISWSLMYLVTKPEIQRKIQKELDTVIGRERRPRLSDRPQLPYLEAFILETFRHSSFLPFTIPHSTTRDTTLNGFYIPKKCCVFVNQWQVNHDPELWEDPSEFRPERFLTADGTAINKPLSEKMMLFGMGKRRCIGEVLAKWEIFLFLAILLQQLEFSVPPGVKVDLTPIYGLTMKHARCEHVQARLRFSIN
The data set is described as follows: Inhibition of cytochrome P450 enzyme in human liver microsomes, CYP 1A2. The settings on record: read-out: CYP 1A2 IC50; human liver microsomes; substrate Finacetin.

Data set [7] deals with CYP 2D6 (Homo sapiens, UniProt P10635). Put plainly: Inhibition of cytochrome P450 enzyme in human liver microsomes, CYP 2D6. The settings on record: read-out: CYP 2D6 IC50; human liver microsomes; substrate Dextromethorphan. (Liver microsomes are a subcellular fraction often used to study metabolism.)
The target of data set [8] is CYP 2C9 (Homo sapiens, UniProt P11712). The data set is described as follows: Inhibition of cytochrome P450 enzyme in human liver microsomes, CYP 2C9. The settings on record: read-out: CYP 2C9 IC50; human liver microsomes; substrate Diclofenac.
In data set [9] the target is CYP 3A4 (Homo sapiens, UniProt P08684). The settings on record: read-out: CYP 3A4 IC50, human liver microsomes.
Data set [10] addresses CYP 2C19 (Homo sapiens, UniProt P33261). Put plainly: Inhibition of cytochrome P450 enzyme in human liver microsomes, CYP 2C19. The settings on record: read-out: CYP 2C19 IC50; human liver microsomes; substrate (S)-mephenytoin.

Experimental findings from US12509421B2, “Preparation and application of deuterated 4-phenyl-4-piperidinols” (priority 2022, dated 2025) are described below.

pIC50: −log10 of the molar value. Where a name gives a salt, the structure may show the parent alone. Read-outs that look alike come from different tables or passages of the source.

For the compound `[2H]C([2H])([2H])N(C)CC1CN(S(=O)(=O)Cc2ccccc2)CCC1(O)c1cccc(OC)c1` (stereo not drawn) [I-1hydrochloride], the 50% effect level in [1] (ED50) was put at a dose of 0.62 mg/kg. In addition, in data set [2], the “hERG inhibition grade” value is given as “μM((Weak inhibition)” and the pIC50 was 4.89. For the same compound, the δOR binding rate in [3] is recorded as 11.4 ± 1.7%. This compound registered a μOR binding rate in data set [4] of 23.95 ± 3.8%. Besides, the κOR binding rate in data set [5] came to 22.5 ± 3.2%.
As to `[2H]C([2H])([2H])N(CC1CN(C(=O)Cc2cc(F)c(F)cc2F)CCC1(O)c1cccc(OC)c1)C([2H])([2H])[2H]` (stereo not drawn) [I-8hydrochloride], the “Maximum analgesic effective percentage (% MPE), hot plate” value in data set [1] came to 100%. In data set [2], the “hERG inhibition grade” value is recorded as “μM((Weak inhibition)” and the pIC50 was 4.77. The compound further showed a δOR binding rate in data set [3] of 8.2 ± 0.9%. This compound also had a μOR binding rate in [4] of 22.8 ± 2.8%. Moreover, the κOR binding rate in [5] turned out to be 16.4 ± 2.6%.
Take “1-(4-hydroxy-4-(3-methoxyphenyl)-3-(((methyl-d3)amino)methyl)-1-piperidinyl)-2(2,4,5-trifluorophenyl)ethyl-1-one [I-5hydrochloride]”: the “ED50, hot plate” value in data set [1] stood at 0.75 mg/kg. Moreover, in data set [2], the “hERG inhibition grade” value is reported as “μM((Weak inhibition)” and the pIC50 was 4.87. The δOR binding rate in data set [3] came out at 12.5 ± 2.9%. In addition, the μOR binding rate in data set [4] is 22.6 ± 1.7%. Further, in data set [5], the κOR binding rate is given as 19.1 ± 1.2%.
In the case of `COc1cccc([C@]2(O)CCN(S(=O)(=O)Cc3ccccc3)C[C@H]2CN(C)C)c1.Cl` [Example 20 of CN201911076305.X, (3R, 4S)-1-(benzylsulfonyl)-3-(dimethylamino)methyl)-4-(3-methoxyphenyl)-4-piperidinol hydrochloride, reference compound], the pIC50 in data set [6] was less than 4.30; in [7], 5.02; in [8] it was less than 4.30; in data set [9] (substrate midazolam) it was 4.49; in data set [9] (substrate testosterone), 4.33; in data set [10], less than 4.30.
Take `[2H]C([2H])([2H])Oc1cccc(C2(O)CCN(S(=O)(=O)Cc3ccccc3)CC2CN(C([2H])([2H])[2H])C([2H])([2H])[2H])c1` (stereo not drawn) [I-3hydrochloride]: the ED50 – broadly, the dose that gives a 50% effect, or the effect in half of the subjects – in [1] came to 0.82 mg/kg. Besides, in data set [2], the “hERG inhibition grade” value was “μM((Weak inhibition)” and the pIC50 is 4.78. Besides, in [3], the δOR binding rate was determined as 8.6 ± 1.2%. This compound also returned a μOR binding rate in data set [4] of 22.75 ± 2.3%. The compound further showed a κOR binding rate in [5] of 14.9 ± 0.9%.
Compound `[2H]C([2H])([2H])Oc1cccc(C2(O)CCN(C(=O)Cc3cc(F)c(F)cc3F)CC2CN(C([2H])([2H])[2H])C([2H])([2H])[2H])c1` (stereo not drawn) [I-7hydrochloride] had an ED50 in data set [1] of 0.89 mg/kg. Further, in [2], the “hERG inhibition grade” value is given as “μM((Weak inhibition)” and the pIC50 was 4.67. In data set [3], this compound had a δOR binding rate of 9.9 ± 0.5%. Moreover, the μOR binding rate in data set [4] was 20.7 ± 2.2%. The κOR binding rate in data set [5] is 15.9 ± 0.7%.
`[2H]C([2H])([2H])N(CC1CN(S(=O)(=O)Cc2ccccc2)CCC1(O)c1cccc(OC)c1)C([2H])([2H])[2H]` (stereo not drawn) [I-4hydrochloride]: in data set [1], the “Maximum analgesic effective percentage (% MPE), hot plate” value was found to be 100%. Besides, in data set [2], the “hERG inhibition grade” value is “μM((Weak inhibition)” and the pIC50 was 4.96. This compound also registered a δOR binding rate in data set [3] of 10.1 ± 0.6%. This compound registered a μOR binding rate in [4] of 25.9 ± 3.9%. Besides, in [5], the κOR binding rate worked out at 18.5 ± 3.2%.
